Measured values reported in patent US9663496B2, “AMPK-activating heterocyclic compounds and methods for using the same” (Rigel Pharmaceuticals, Inc., priority 2010, dated 2017).

These compounds were tested against AMPK (assay: AMPK activation, enzyme-linked immunosorbent assay). Conditions: EC50 for AMPK activation, ELISA.
Assay type: biochemical
Procedure, shortened: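 Activation by each compound is measured using a conventional commercial immunoassay kit.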

Row | EC50 | Compound
1 | < 500 nM | N#Cc1ccc(CN2CCC(NC(=O)c3ccc(C(=O)N4CCC(Oc5ccc(N)cc5)CC4)nc3)CC2)cc1 [Compound 364, 6-(4-(4-aminophenoxy)piperidine-1-carbonyl)-N-(1-(4-cyanobenzyl)piperidin-4-yl)nicotinamide]
2 | 1000 to 5000 nM | O=C(NC1CCN(Cc2ccccc2)CC1)c1ccc(Nc2cccc(Oc3ccccc3)c2)cn1 [Compound 112, N-(1-benzylpiperidin-4-yl)-5-(3-phenoxyphenylamino) picolinamide]
3 | 500 to 1000 nM | NC(=O)c1ccc(CN2CCC(NC(=O)c3ccc(C(=O)N4CCN(Cc5ccc(F)cc5)CC4)cn3)CC2)cc1 [Compound 201, N-(1-(4-carbamoylbenzyl)piperidin-4-yl)-5-(4-(4-fluorobenzyl)piperazine-1-carbonyl)picolinamide]
4 | < 500 nM | CS(=O)(=O)c1ccc(OC2CCN(C(=O)c3ccc(C(=O)N[C@@H]4CCN(Cc5ccc(OC(F)(F)F)cc5)C[C@H]4F)nc3)CC2)cc1 (relative stereo) [Compound 255, N-((trans)-3-fluoro-1-(4-(trifluoromethoxy)benzyl)piperidin-4-yl)-5-(4-(4-(methylsulfonyl)phenoxy)piperidine-1-carbonyl)picolinamide]
5 | < 500 nM | O=C(NC1CCN(Cc2ccccc2)CC1)c1ccc(C(=O)N2CCN(Cc3ccccc3)CC2)nc1 [Compound 74, 6-(4-benzylpiperazine-1-carbonyl)-N-(1-benzylpiperidin-4-yl)nicotinamide]
6 | < 500 nM | COc1ccc(O[C@H]2CC[C@@H](NC(=O)c3ccc(C(=O)N4CCC(C(=O)c5ccc(OC)cc5)CC4)cn3)CC2)cc1 [Compound 184, 5-(4-(4-methoxybenzoyl)piperidine-1-carbonyl)-N-((cis)-4-(4-methoxyphenoxy)cyclohexyl)picolinamide]
7 | < 500 nM | COc1ccc(CC2CCN(C(=O)c3ccc(C(=O)NC4CCN(Cc5ccc(C#N)cc5)CC4)nc3)CC2)cc1F [Compound 146, N-(1-(4-cyanobenzyl)piperidin-4-yl)-5-(4-(3-fluoro-4-methoxybenzyl)piperidine-1-carbonyl)picolinamide]
8 | < 500 nM | COc1ccc(C(=O)C2CCN(C(=O)c3ccc(C(=O)Nc4ccc(Oc5ccc(F)cc5)nc4)cn3)CC2)cc1 [Compound 325, N-(6-(4-fluorophenoxy)pyridin-3-yl)-6-(4-(4-methoxybenzoyl)piperidine-1-carbonyl)nicotinamide]
9 | < 500 nM | CS(=O)(=O)c1ccc(N2CCN(C(=O)c3ccc(C(=O)NC4CCN(Cc5ccc(C#N)cc5)CC4)nc3)CC2)cc1 [Compound 250, N-(1-(4-cyanobenzyl)piperidin-4-yl)-5-(4-(4-(methylsulfonyl)phenyl)piperazine-1-carbonyl)picolinamide]
10 | 1000 to 5000 nM | COc1ccc(C(=O)C2CCN(C(=O)c3ccc(C(=O)NC4CCN(Cc5ccc(N)cc5)CC4)cn3)CC2)cc1 [Compound 400, N-(1-(4-aminobenzyl)piperidin-4-yl)-6-(4-(4-methoxybenzoyl)piperidine-1-carbonyl)nicotinamide]
11 | < 500 nM | COc1ccc(N2CCC(NC(=O)c3ccc(C(=O)N4CCC(Oc5ccc(C#N)cc5)CC4)nc3)CC2)cc1 [Compound 423, 6-(4-(4-cyanophenoxy)piperidine-1-carbonyl)-N-(1-(4-methoxyphenyl)piperidin-4-yl)nicotinamide]
12 | < 500 nM | CC(=O)c1ccc(OC2CCN(C(=O)c3ccc(C(=O)NC4CCN(Cc5ccc(F)cc5)CC4)cn3)CC2)cc1 [Compound 391, 6-(4-(4-acetylphenoxy)piperidine-1-carbonyl)-N-(1-(4-fluorobenzyl)piperidin-4-yl)nicotinamide]
13 | 1000 to 5000 nM | Cc1cc(CN2CCN(C(=O)c3ccc(C(=O)NC4CCN(Cc5ccccc5)CC4)nc3)CC2)no1 [Compound 85, N-(1-benzylpiperidin-4-yl)-5-(4-((5-methylisoxazol-3-yl)methyl)piperazine-1-carbonyl)picolinamide]
14 | < 500 nM | N#Cc1ccc(CN2CCC(NC(=O)c3ccc(C(=O)N4CCC(C(=O)c5ccc(C#N)cc5)CC4)cn3)CC2)cc1 [Compound 369, 5-(4-(4-cyanobenzoyl)piperidine-1-carbonyl)-N-(1-(4-cyanobenzyl)piperidin-4-yl)picolinamide]
15 | < 500 nM | O=C(Nc1ccc(Oc2ccc(F)cc2)nc1)c1ccc(C(=O)N2CCC(C(=O)c3ccc(F)cc3)CC2)cn1 [Compound 272, 5-(4-(4-fluorobenzoyl)piperidine-1-carbonyl)-N-(6-(4-fluorophenoxy)pyridin-3-yl)picolinamide]
16 | < 500 nM | N#Cc1ccc(CN2CCC(NC(=O)c3ccc(C(=O)N4CCC(C(=O)c5ccc(N=[N+]=[N-])cc5)CC4)nc3)CC2)cc1 [Compound 240, 6-(4-(4-azidobenzoyl)piperidine-1-carbonyl)-N-(1-(4-cyanobenzyl)piperidin-4-yl)nicotinamide]
17 | < 500 nM | CS(=O)(=O)c1ccc(C(=O)C2CCN(C(=O)c3ccc(C(=O)Nc4ccc(Oc5ccc(F)cc5)nc4)nc3)CC2)cc1 [Compound 232, N-(6-(4-fluorophenoxy)pyridin-3-yl)-5-(4-(4-(methylsulfonyl)benzoyl)piperidine-1-carbonyl)picolinamide]

Row | EC50 | Compound
18 | 500 to 1000 nM | COc1ccc(S(=O)(=O)N2CCN(C(=O)c3ccc(C(=O)NC4CCN(Cc5ccc(C#N)cc5)CC4)nc3)CC2)cc1 [Compound 79, N-(1-(4-cyanobenzyl)piperidin-4-yl)-5-(4-(4-methoxyphenylsulfonyl)piperazine-1-carbonyl)picolinamide]
19 | 500 to 1000 nM | CC(=O)Nc1ccc(OC2CCN(C(=O)c3ccc(C(=O)NC4CCN(Cc5ccc(F)cc5)CC4)cn3)CC2)cc1 [Compound 406, 6-(4-(4-acetamidophenoxy)piperidine-1-carbonyl)-N-(1-(4-fluorobenzyl)piperidin-4-yl)nicotinamide]
20 | 1000 to 5000 nM | O=C(NC1CCN(Cc2ccccc2)CC1)c1ccc(Nc2cccc(-c3ccccc3)c2)cn1 [Compound 114, N-(1-benzylpiperidin-4-yl)-5-(biphenyl-3-ylamino)picolinamide]
21 | < 500 nM | O=C(Nc1ccc(Oc2ccc(F)cc2)nc1)c1ccc(C(=O)N2CCC(Oc3ccc(S(=O)(=O)C4CC4)cc3)CC2)nc1 [Compound 247, 6-(4-(4-(cyclopropylsulfonyl)phenoxy)piperidine-1-carbonyl)-N-(6-(4-fluorophenoxy)pyridin-3-yl)nicotinamide]
22 | < 500 nM | CS(=O)(=O)c1ccc(CN2CCC(NC(=O)c3ccc(C(=O)N4CCC(C(=O)c5ccc(F)cc5F)CC4)nc3)CC2)cc1 [Compound 213, 6-(4-(2,4-difluorobenzoyl)piperidine-1-carbonyl)-N-(1-(4-(methylsulfonyl)benzyl)piperidin-4-yl)nicotinamide]
23 | < 500 nM | CC(=O)c1ccc(Oc2ccc(NC(=O)c3ccc(C(=O)N4CCC(C(=O)c5ccc(F)cc5F)CC4)nc3)cn2)cc1 [Compound 464, N-(6-(4-acetylphenoxy)pyridin-3-yl)-6-(4-(2,4-difluorobenzoyl)piperidine-1-carbonyl)nicotinamide]
24 | 1000 to 5000 nM | CC(=O)Nc1cccc(OC2CCN(C(=O)c3ccc(C(=O)NC4CCN(Cc5ccc(C#N)cc5)CC4)cn3)CC2)c1 [Compound 411, 6-(4-(3-acetamidophenoxy)piperidine-1-carbonyl)-N-(1-(4-cyanobenzyl)piperidin-4-yl)nicotinamide]
25 | < 500 nM | N#Cc1ccc(CN2CCC(NC(=O)c3ccc(NC4CCN(c5ccc(F)cc5)CC4)cn3)CC2)cc1 [Compound 276, N-(1-(4-cyanobenzyl)piperidin-4-yl)-5-(1-(4-fluorophenyl)piperidin-4-ylamino)picolinamide]
26 | < 500 nM | N#Cc1ccc(CN2CCC(NC(=O)c3ccc(C(=O)N4CCC(Oc5ccc(C(=O)C6CC6)cc5)CC4)nc3)CC2)cc1 [Compound 456, N-(1-(4-cyanobenzyl)piperidin-4-yl)-6-(4-(4-(cyclopropanecarbonyl)phenoxy)piperidine-1-carbonyl)nicotinamide]
27 | 1000 to 5000 nM | O=C(NC1CCN(c2ccc(F)cc2)CC1)c1ccc(C(=O)N2CCN(Cc3ccc(F)cc3)CC2)nc1 [Compound 404, 6-(4-(4-fluorobenzyl)piperazine-1-carbonyl)-N-(1-(4-fluorophenyl)piperidin-4-yl)nicotinamide]
28 | < 500 nM | CS(=O)(=O)c1ccc(OC2CCN(C(=O)c3ccc(C(=O)NC4CCN(Cc5cccc(OC(F)(F)F)c5)CC4)nc3)CC2)cc1 [Compound 242, 5-(4-(4-(methylsulfonyl)phenoxy)piperidine-1-carbonyl)-N-(1-(3-(trifluoromethoxy)benzyl)piperidin-4-yl)picolinamide]
29 | < 500 nM | CCOC(=O)c1ccc(OC2CCN(C(=O)c3ccc(C(=O)NC4CCN(Cc5ccc(C#N)cc5)CC4)nc3)CC2)cc1 [Compound 284, ethyl 4-(1-(6-(1-(4-cyanobenzyl)piperidin-4-ylcarbamoyl)nicotinoyl)piperidin-4-yloxy)benzoate]
30 | < 500 nM | N#Cc1ccc(O[C@H]2CC[C@@H](NC(=O)c3ccc(C(=O)N4CCN(Cc5ccc(F)cc5)CC4)cn3)CC2)cc1 [Compound 150, N-(cis-4-(4-cyanophenoxy)cyclohexyl)-5-(4-(4-fluorobenzyl)piperazine-1-carbonyl)picolinamide]
31 | < 500 nM | CC(C)(c1ccccc1)N1CCN(C(=O)c2ccc(C(=O)NC3CCN(Cc4ccc(C#N)cc4)CC3)nc2)CC1 [Compound 133, N-(1-(4-cyanobenzyl)piperidin-4-yl)-5-(4-(2-phenylpropan-2-yl)piperazine-1-carbonyl)picolinamide]
32 | < 500 nM | N#Cc1ccc(CN2CCC(NC(=O)c3ccc(C(=O)N4CCC(C(=O)c5ccc(F)cc5F)CC4)nc3)CC2)cc1 [Compound 346, N-(1-(4-cyanobenzyl)piperidin-4-yl)-6-(4-(2,4-difluorobenzoyl)piperidine-1-carbonyl)nicotinamide]
33 | 1000 to 5000 nM | N#Cc1ccc(CN2CCC(NC(=O)c3ccc(C(=O)N4CCN(C(=O)c5ccc(C(=O)NC6CCN(Cc7ccc(C#N)cc7)CC6)nc5)CC4)cn3)CC2)cc1 [Compound 75, 5,5′-(piperazine-1,4-diylbis(oxomethylene)) bis(N-(1-(4-cyanobenzyl)piperidin-4-yl)picolinamide)]
